Test results taken from ChEMBL document CHEMBL6114971, “Design, synthesis and biological evaluation of benzo[b]thiophene analogues as novel ferroptosis inhibitor that inhibit fibrosarcoma cell proliferation” (Bioorg Med Chem, 2025).
The source made the active and inactive calls. No cut-off for these calls is given here.

Key:
[1] = test system: A549; test: Antiproliferative activity against human A549 cells measured after 72 hrs by MTT assay; type: functional, cell-based; details: A549, 72 h
[2] = test system: 4T1; test: Antiproliferative activity against mouse 4T1 cells measured after 72 hrs by MTT assay; type: functional, cell-based; details: 4T1, 72 h
[3] = test system: HT-1080; test: Antiproliferative activity against human HT-1080 cells measured after 72 hrs by MTT assay; type: functional, cell-based; details: HT-1080, 72 h
[4] = test system: MGC-803; test: Antiproliferative activity against human MGC-803 cells measured after 72 hrs by MTT assay; type: functional, cell-based; details: MGC-803, 72 h
[5] = test system: HT-1080; test: Antiproliferative activity against human HT-1080 cells measured after 72 hrs in presence of ferroptosis inhibitor Fer-1 by MTT assay; type: functional, cell-based; details: HT-1080, 72 h
[6] = Selectivity ratio of IC50 for antiproliferative activity against human HT-1080 cells in presence of ferroptosis inhibitor Fer-1 to IC50 for antiproliferative activity against human HT-1080 cells; type: functional
[7] = Cytotoxicity against human GES1 cells measured after 72 hrs by MTT assay; type: toxicity, cell-based
[8] = Cytotoxicity against HUVEC measured after 72 hrs by MTT assay; type: toxicity, cell-based; details: human
[9] = Selectivity index, ratio of IC50 for human GES1 cells to IC50 for human HT-1080; type: toxicity; details: GES1 cells versus HT-1080 cells, read-out: Ratio IC50
[10] = Selectivity index, ratio of IC50 for HUVEC to IC50 for human HT-1080; type: toxicity; details: HUVEC versus HT-1080 cells, read-out: Ratio IC50
[11] = target: T1, Phospholipid hydroperoxide glutathione peroxidase GPX4 (Homo sapiens) (UniProt P36969); test: Inhibition of GPX4 activity in human HT-1080 cells assessed as down regulation of GPX4 level at 2 uM measured after 24 hrs by Western blotting analysis; type: cell-based
T1 sequence (whole entry): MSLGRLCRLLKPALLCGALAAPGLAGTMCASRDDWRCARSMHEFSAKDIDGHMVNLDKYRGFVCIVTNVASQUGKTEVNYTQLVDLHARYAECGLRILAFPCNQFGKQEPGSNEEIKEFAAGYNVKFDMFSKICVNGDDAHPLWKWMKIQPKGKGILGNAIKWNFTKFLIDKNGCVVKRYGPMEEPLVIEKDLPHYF

[12] = test system: HT-1080; test: Reduction in GPX4 mRNA level in human HT-1080 cells at 2 uM measured after 24 hrs by qRT-PCR analysis; type: functional, cell-based

Structure (SMILES)	IC50 [1]	IC50 [2]	IC50 [3]	IC50 [4]	IC50 [5]	Ratio IC50 [6]	IC50 at 72 h [7]	IC50 at 72 h [8]	selectivity ratio [9]	selectivity ratio [10]	inhibition [11]	Activity [12]
O=C(CCl)N(Cc1cc2ccccc2s1)c1ccc(F)cc1	> 20 µM	> 20 µM	10.4 µM	7.09 µM	–	–	–	–	–	–	–	–
COc1cc(N(Cc2ccoc2)C(=O)CCl)cc(OC)c1OC	> 20 µM	5.97 µM	4.21 µM	> 20 µM	–	–	–	–	–	–	–	–
O=C(CCl)N(Cc1c[nH]c2ccccc12)c1ccccc1	> 20 µM	> 20 µM	7.86 µM	13.2 µM	–	–	–	–	–	–	–	–
O=C(CCl)N(Cc1csc2ccccc12)c1ccccc1	> 20 µM	> 20 µM	11.2 µM	10.3 µM	–	–	–	–	–	–	–	–
COc1cc(N(Cc2ccoc2)C(=O)c2noc(C)c2[N+](=O)[O-])cc(OC)c1OC	> 20 µM	> 20 µM	> 20 µM	> 20 µM	–	–	–	–	–	–	–	–
COc1ccc(N(Cc2csc3ccccc23)C(=O)c2noc(C)c2[N+](=O)[O-])cc1OC	> 20 µM	3.48 µM	5.25 µM	> 20 µM	15.6 µM	2.98	87.3 µM	31.8 µM	16.6	6.06	Active; Significant Down Regulation Observed	–
COc1ccc(N(Cc2csc3ccccc23)C(=O)CCl)cc1OC	15.2 µM	> 20 µM	4.22 µM	2.42 µM	–	–	–	–	–	–	–	–
CCCCN(Cc1cc2ccccc2s1)C(=O)CCl	> 20 µM	5.31 µM	3.73 µM	> 20 µM	6 µM	1.5	123 µM	8.58 µM	30.9	2.15	Active; Significant Down Regulation Observed	–
COc1cc(N(Cc2ccsc2)C(=O)c2noc(C)c2[N+](=O)[O-])cc(OC)c1OC	> 20 µM	14.4 µM	> 20 µM	> 20 µM	–	–	–	–	–	–	–	–
O=C(CCl)N(Cc1csc2ccccc12)c1cccc(C(F)(F)F)c1	19.3 µM	> 20 µM	11.1 µM	7.95 µM	–	–	–	–	–	–	–	–
COc1ccc(N(Cc2cc3ccccc3[nH]2)C(=O)CCl)cc1	> 20 µM	18.8 µM	11.8 µM	> 20 µM	–	–	–	–	–	–	–	–
COc1cc(N(Cc2csc3ccccc23)C(=O)c2noc(C)c2[N+](=O)[O-])cc(OC)c1OC	> 20 µM	10.2 µM	> 20 µM	> 20 µM	–	–	–	–	–	–	–	–
Cc1onc(C(=O)N(Cc2csc3ccccc23)c2ccc(F)cc2)c1[N+](=O)[O-]	> 20 µM	10.2 µM	> 20 µM	> 20 µM	–	–	–	–	–	–	–	–
O=C(CCl)N(Cc1ccoc1)c1ccc(F)cc1	> 20 µM	12.1 µM	6.06 µM	16.7 µM	–	–	–	–	–	–	–	–
O=C(CCl)N(Cc1ccoc1)c1ccccc1	> 20 µM	14.1 µM	14.2 µM	> 20 µM	–	–	–	–	–	–	–	–
O=C(CCl)N(Cc1ccccc1)Cc1csc2ccccc12	> 20 µM	8.52 µM	> 20 µM	> 20 µM	–	–	–	–	–	–	–	–
COc1ccc(N(Cc2cc3ccccc3s2)C(=O)CCl)cc1OC	16.9 µM	> 20 µM	8.98 µM	1.8 µM	–	–	–	–	–	–	–	–
O=C(CCl)N(Cc1ccsc1)c1ccccc1	> 20 µM	7.34 µM	4.73 µM	19.8 µM	–	–	–	–	–	–	–	–

Structure (SMILES)	IC50 [1]	IC50 [2]	IC50 [3]	IC50 [4]	IC50 [5]	Ratio IC50 [6]	IC50 at 72 h [7]	IC50 at 72 h [8]	selectivity ratio [9]	selectivity ratio [10]	inhibition [11]	Activity [12]
COc1ccc(N(Cc2csc3ccccc23)C(=O)CCl)cc1	> 20 µM	> 20 µM	14 µM	16.9 µM	–	–	–	–	–	–	–	–
CCOc1ccccc1-n1c(C(C)N2CCN(C(=O)COc3ccc(Cl)cc3)CC2)nc2ccccc2c1=O (stereo not given) [ERASTIN]	> 20 µM	12.7 µM	3.54 µM	> 20 µM	–	–	–	–	–	–	–	–
O=C(CCl)N(Cc1cc2ccccc2s1)c1cccc(C(F)(F)F)c1	> 20 µM	17.8 µM	13.6 µM	12 µM	–	–	–	–	–	–	–	–
O=C(CCl)N(Cc1cc2ccccc2[nH]1)c1ccc(F)cc1	> 20 µM	12.4 µM	9.26 µM	7.32 µM	–	–	–	–	–	–	–	–
O=C(CCl)N(Cc1csc2ccccc12)c1ccc(F)cc1	> 20 µM	> 20 µM	12.3 µM	13.4 µM	–	–	–	–	–	–	–	–
COc1cc(N(Cc2ccsc2)C(=O)CCl)cc(OC)c1OC	> 20 µM	11.2 µM	3.61 µM	14.1 µM	6.3 µM	1.74	62.3 µM	15.4 µM	17.3	4.27	Active; Significant Down Regulation Observed	–
COc1cc(N(Cc2ccc3ccccc3n2)C(=O)c2noc(C)c2[N+](=O)[O-])cc(OC)c1OC	18.9 µM	12.9 µM	> 20 µM	> 20 µM	–	–	–	–	–	–	–	–
COc1ccc(N(Cc2c[nH]c3ccccc23)C(=O)CCl)cc1	> 20 µM	15.8 µM	12.4 µM	11.7 µM	–	–	–	–	–	–	–	–
COc1ccc(N(Cc2cc3ccccc3s2)C(=O)CCl)cc1	18.3 µM	> 20 µM	> 20 µM	10.1 µM	–	–	–	–	–	–	inactive	–
COc1ccc(N(Cc2c[nH]c3ccccc23)C(=O)CCl)cc1OC	16.7 µM	> 20 µM	15 µM	7.19 µM	–	–	–	–	–	–	–	–
COc1cc(N(C)Cc2csc3ccccc23)cc(OC)c1OC	–	–	–	–	–	–	–	–	–	–	–	inactive
O=C(CCl)N(Cc1c[nH]c2ccccc12)c1ccc(F)cc1	16 µM	> 20 µM	7.21 µM	9.09 µM	–	–	–	–	–	–	–	–
COc1ccc(N(Cc2csc3ccccc23)C(=O)CCl)cc1Cl	> 20 µM	7.77 µM	3.99 µM	> 20 µM	–	–	–	–	–	–	–	–
O=C(CCl)N(Cc1ccsc1)c1ccc(F)cc1	> 20 µM	> 20 µM	5.21 µM	15.1 µM	–	–	–	–	–	–	–	–
Cc1onc(C(=O)N(Cc2csc3ccccc23)c2ccccc2)c1[N+](=O)[O-]	> 20 µM	> 20 µM	> 20 µM	> 20 µM	–	–	–	–	–	–	–	–
O=C(CCl)N(Cc1cc2ccccc2[nH]1)c1ccccc1	> 20 µM	> 20 µM	15.3 µM	13.8 µM	–	–	–	–	–	–	–	–
COc1cc(N(Cc2cc3ccccc3s2)C(=O)CCl)cc(OC)c1OC	> 20 µM	> 20 µM	3.59 µM	2.08 µM	4.13 µM	1.15	68.8 µM	10.5 µM	18.4	2.8	Active; Significant Down Regulation Observed	–
O=C(CCl)N(Cc1cc2ccccc2s1)c1ccccc1	15.4 µM	> 20 µM	18 µM	6.73 µM	–	–	–	–	–	–	–	–
